Source: article PMC8637149 (Heliyon, 2021)
Values belong to the compound of their own block, whether it stands above or below them.

Legend:
[1] = target: T1, ZmPEPC-C4 (Zea mays, UniProt Q84KR7); experiment: ANS fluorescence titration, emission […] nm; assay type: binding
T1 sequence (Q84KR7 1-970): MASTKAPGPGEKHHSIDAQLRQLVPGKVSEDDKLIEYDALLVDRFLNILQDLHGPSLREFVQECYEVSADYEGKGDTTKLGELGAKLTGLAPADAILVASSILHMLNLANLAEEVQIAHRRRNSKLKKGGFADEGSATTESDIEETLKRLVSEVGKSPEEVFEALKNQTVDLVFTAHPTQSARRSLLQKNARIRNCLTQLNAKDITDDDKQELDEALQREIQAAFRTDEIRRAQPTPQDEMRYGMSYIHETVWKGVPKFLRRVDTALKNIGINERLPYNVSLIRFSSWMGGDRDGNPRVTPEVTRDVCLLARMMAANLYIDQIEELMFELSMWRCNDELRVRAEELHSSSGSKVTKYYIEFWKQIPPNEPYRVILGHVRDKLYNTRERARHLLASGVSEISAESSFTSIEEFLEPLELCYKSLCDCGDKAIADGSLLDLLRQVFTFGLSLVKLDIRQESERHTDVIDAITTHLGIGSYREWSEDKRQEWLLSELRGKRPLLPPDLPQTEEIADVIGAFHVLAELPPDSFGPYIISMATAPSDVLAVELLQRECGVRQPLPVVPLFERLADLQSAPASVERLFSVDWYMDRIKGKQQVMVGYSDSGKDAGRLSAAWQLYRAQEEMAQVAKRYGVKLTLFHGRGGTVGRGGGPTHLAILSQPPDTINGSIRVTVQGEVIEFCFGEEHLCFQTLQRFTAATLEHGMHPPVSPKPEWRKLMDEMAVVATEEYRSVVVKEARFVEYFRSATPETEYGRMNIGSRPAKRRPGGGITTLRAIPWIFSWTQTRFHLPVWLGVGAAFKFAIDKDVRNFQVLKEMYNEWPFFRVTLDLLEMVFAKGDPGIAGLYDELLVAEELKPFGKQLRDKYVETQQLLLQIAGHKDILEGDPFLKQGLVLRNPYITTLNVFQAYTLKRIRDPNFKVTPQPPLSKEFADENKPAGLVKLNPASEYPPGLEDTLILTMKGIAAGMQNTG

[2] = target: T1, ZmPEPC-C4; experiment: near-UV CD and limited trypsin proteolysis; assay type: binding; details: 15 mM G6P, pH 7.3; allosteric activator; no effect on ANS fluorescence
[3] = target: T1, ZmPEPC-C4; experiment: quenching of ANS-enzyme fluorescence at […] nm, Hill-type fit; assay type: binding
[4] = target: T1, ZmPEPC-C4; experiment: coupled malic dehydrogenase assay, NADH oxidation at […] nm; assay type: biochemical; details: read-out: % inhibition at 10 mM

Kd [1]: 14.5 ± 1.5 µM
SMILES: O=S(=O)(O)c1cccc2cccc(Nc3ccccc3)c12 [ANS]

SMILES: O=P(O)(O)OC[C@H]1OC(O)[C@H](O)[C@@H](O)[C@@H]1O (stereo partly shown) [G6P]
near-UV CD and limited trypsin proteolysis [2]: differences were also observed in the CD spectra of the E-PEP, E-G6P, and E-Gly complexes

Kd [3]: 360 ± 70 µM | inhibition at 10000 µM [4]: 84.5 ± 0.2%
SMILES: O=C(O)C[C@H](O)C(=O)O [malate]
